The conditions of data set [1]: Crystal; DTA.
Data set [2] in a line: Molar enthalpy of transition or fusion. The following applies: Crystal; DSC.

Numbers after ± are expanded uncertainties.

Turning to `Cc1cc(C)c(C(=O)P(=O)(c2ccccc2)c2ccccc2)c(C)c1` [(2,4,6-trimethylbenzoyl) diphenylphosphine oxide], the Normal melting temperature in data set [1] stood at 92.66 ± 0.39 °C. Also, the “Molar enthalpy of transition or fusion” value in data set [2] came to 6.03 ± 0.172 kcal/mol.

The values are drawn from the NIST ThermoML archive (doi:10.1016/j.fluid.2018.01.015).
